# Key:
# human Edg-1(S1P1) [1] = target: T1, human Edg-1(S1P1) (Homo sapiens, UniProt P21453); assay: Membrane system binding test: inhibition of [33P]-S1P binding to the membrane fraction of Edg-1(S1P1) gene transferred HEK-293 cells; details: 10 μM compound, [33P]-S1P 0.1 nM, membrane fraction of Edg-1(S1P1) gene transferred HEK-293 cells; for inhibition at 10 µM: read-out: Membrane system binding test % inhibition (10 μM)
# T1 construct: expressed in transfected cells; host or cells: HEK-293
# Protocol: The membrane fraction was obtained by treating the cells with a solubilizing buffer (1 mM Tris/HCl, pH 7.2) for 10 minutes on ice, centrifuging the system (1000×g, 5 min) to remove insoluble fractions, and then centrifuging the system (40000×g, 30 min, 4° C.). The resulting membrane fraction was dissolved in a binding buffer (20 mM Tris-HCl, pH 7.4, 100 mM NaCl, 15 mM NaF, 2 mM deoxypyridoxine, 4 mg/mL fatty acid-free BSA), and then [^33P]-S1P (produced by ARC, end concentration 0.1 nM) and a DMSO solution of the test compound (end concentration of the compound: 10^−5 M, end concentration of DMSO: 0.1%) were added, followed by stirring the mixture and subsequently treating it for 1 hour at 30° C. Using a harvester, the membrane fraction was harvested onto unifilter-96GF/C filter (produced by Perkin-Elmer). Then, the filter with the membrane fraction was washed 4 times with the binding buffer, and the filter was dried. To the filter, 25 μL Microscint 0 (produced by Perkin-Elmer) was added, and the assay system was measured for radioactivity by means of Top Count NXT (Packard). Based on the radioactivity, the amount (A) of binding of [^33P]-S1P to the membrane fraction upon addition of the compound was calculated.
# The same procedure was performed in the absence of the test compound, and the amount (B) of binding of [^33P]-S1P was calculated. Moreover, the same procedure was performed in the absence of the test compound with the use of HEK-293 cells, to which the Edg-1(S1P1) gene had not been transferred, and the background amount (C) of binding of [^33P]-S1P was calculated.
# The Edg-1(S1P1) binding inhibition rate of the compound, calculated from the following equation, is shown in […]
# human Edg-1(S1P1) [2] = target: T1, human Edg-1(S1P1); assay: Cell system binding test: inhibition of [3H]-S1P binding to Edg-1(S1P1) gene transferred HEK-293 cells; details: 10 μM compound, [3H]-S1P 10 nM, read-out: Cell system binding test % inhibition (10 μM)
# T1 sequence (P21453 whole entry): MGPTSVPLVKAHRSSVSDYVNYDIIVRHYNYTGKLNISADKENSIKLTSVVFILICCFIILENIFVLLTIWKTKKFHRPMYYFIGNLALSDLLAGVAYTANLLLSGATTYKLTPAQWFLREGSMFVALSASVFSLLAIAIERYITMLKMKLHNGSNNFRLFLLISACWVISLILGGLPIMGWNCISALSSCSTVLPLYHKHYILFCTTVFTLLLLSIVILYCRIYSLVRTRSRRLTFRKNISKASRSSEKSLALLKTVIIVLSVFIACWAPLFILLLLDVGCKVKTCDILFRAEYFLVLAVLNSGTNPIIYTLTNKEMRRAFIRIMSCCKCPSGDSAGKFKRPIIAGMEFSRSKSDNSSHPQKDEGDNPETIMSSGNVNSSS
Structure (SMILES),inhibition at 10 µM (human Edg-1(S1P1) [1]) [%],inhibition at 10 µM (human Edg-1(S1P1) [2]) [%],Membrane system binding test % inhibition (10 μM) (human Edg-1(S1P1) [1]) [%]
CCn1c(SCc2ccncc2)nnc1[C@@H](C)NS(=O)(=O)c1ccc(Cl)cc1 [Compound 64],86.5,91.3,
CCn1c(SCCCc2ccncc2)nnc1[C@@H](C)NS(=O)(=O)c1ccc(Cl)cc1 [Compound 68],97.9,93,
CCn1c(SCc2cccc(N(C)C)c2)nnc1[C@@H](C)NS(=O)(=O)c1ccc(Cl)cc1 [Compound 71],104,89.7,
CCn1c(SCCNC(=O)c2ccncc2)nnc1[C@@H](C)NS(=O)(=O)c1ccc(Cl)cc1 [Compound 74],109,93.6,
CCN(CCSc1nnc([C@@H](C)NS(=O)(=O)c2ccc(Cl)cc2)n1CC)c1ccccc1 [Compound 75],99.4,92.7,
CCn1c(SCCc2ccc(N(C)C)cc2)nnc1[C@@H](C)NS(=O)(=O)c1ccc(Cl)cc1 [Compound 77],96.4,89.4,
CCn1c(SCCS(=O)(=O)c2ccccc2)nnc1[C@@H](C)NS(=O)(=O)c1ccc(Cl)cc1 [Compound 80],87.5,86.2,
CCn1c(SCc2ccc([N+](=O)[O-])cc2)nnc1[C@@H](C)NS(=O)(=O)c1ccc(Cl)cc1 [Compound 81],110,87.6,
CCn1c(SCc2ccc(NC(C)=O)cc2)nnc1[C@@H](C)NS(=O)(=O)c1ccc(Cl)cc1 [Compound 82],90.4,84.7,
CCn1c(SCCc2c[nH]c3ccccc23)nnc1[C@@H](C)NS(=O)(=O)c1ccc(Cl)cc1 [Compound 85],106,90.4,
C=CCSc1nnc(C(C)NS(=O)(=O)c2ccc(Cl)cc2)n1C (stereo not shown) [Compound 91],47.4,72.9,
C=CCSc1nnc([C@@H](C)NS(=O)(=O)c2ccc(Cl)cc2)n1C(C)C [Compound 97],52.5,88.9,
C=CCSc1nnc(CNS(=O)(=O)c2ccc(Cl)cc2)n1CC [Compound 104],42.1,99.5,
C=CCSc1nnc([C@@H](CC)NS(=O)(=O)c2ccc(Cl)cc2)n1C [Compound 106],,86.9,52.5
C=CCSc1nnc(C(CC)NS(=O)(=O)c2ccc(Cl)cc2)n1CC (stereo not shown) [Compound 109],100,93,
C=CCSc1nnc([C@@H](CC)NS(=O)(=O)c2ccc(Cl)cc2)n1CCC [Compound 113],,84,46.3
C=CCSc1nnc([C@@H](CC)NS(=O)(=O)c2ccc(Cl)cc2)n1C(C)C [Compound 117],83.8,93.6,
C=CCSc1nnc([C@@H](Cc2ccccc2)NS(=O)(=O)c2ccc(Cl)cc2)n1C [Compound 134],84.8,88.8,

Structure (SMILES),inhibition at 10 µM (human Edg-1(S1P1) [1]) [%],inhibition at 10 µM (human Edg-1(S1P1) [2]) [%],Membrane system binding test % inhibition (10 μM) (human Edg-1(S1P1) [1]) [%]
C=CCSc1nnc(C(Cc2ccccc2)NS(=O)(=O)c2ccc(Cl)cc2)n1C (stereo not shown) [Compound 135],96.9,86.7,
C=C(C)CSc1nnc(C(Cc2ccccc2)NS(=O)(=O)c2ccc(Cl)cc2)n1C (stereo not shown) [Compound 136],94.7,103,
Cn1c(SCc2ccc(Cl)c(Cl)c2)nnc1C(Cc1ccccc1)NS(=O)(=O)c1ccc(Cl)cc1 (stereo not shown) [Compound 137],57.1,99,
C=CCSc1nnc([C@@H](Cc2ccccc2)NS(=O)(=O)c2ccc(Cl)cc2)n1CC [Compound 138],102,94.7,
CCCSc1nnc([C@@H](Cc2ccccc2)NS(=O)(=O)c2ccc(Cl)cc2)n1CC [Compound 139],107,91,
C=CCSc1nnc([C@@H](Cc2ccccc2)NS(=O)(=O)c2ccc(Cl)cc2)n1CCC [Compound 141],79.5,94.8,
C=CCSc1nnc([C@@H](Cc2ccccc2)NS(=O)(=O)c2ccc(Cl)cc2)n1C(C)C [Compound 143],88.7,96,
C=CCSc1nnc(C(Cc2ccccc2)NS(=O)(=O)c2ccc(F)cc2)n1CC (stereo not shown) [Compound 169],72.9,67.5,
CCOc1nnc([C@@H](C)NS(=O)(=O)c2ccc(Cl)cc2)n1CC [Compound 186],94.5,89.3,
CCn1c(OCCN(C)C)nnc1[C@@H](C)NS(=O)(=O)c1ccc(Cl)cc1 [Compound 187],46.4,82.9,
CCn1c(OCCCN(C)C)nnc1[C@@H](C)NS(=O)(=O)c1ccc(Cl)cc1 [Compound 188],46.3,82,
CCn1c(OCCCCCCN(C)C)nnc1[C@@H](C)NS(=O)(=O)c1ccc(Cl)cc1 [Compound 189],107,105,
CCn1c(OCCO)nnc1[C@@H](C)NS(=O)(=O)c1ccc(Cl)cc1 [Compound 190],41.3,91.1,
CCn1c(OCCCO)nnc1[C@@H](C)NS(=O)(=O)c1ccc(Cl)cc1 [Compound 191],88.3,97.1,
CCCCCCCCCCCCCCCCOc1nnc([C@@H](C)NS(=O)(=O)c2ccc(Cl)cc2)n1CC [Compound 192],105,75.5,
CCn1c(OC)nnc1[C@H](C)NS(=O)(=O)c1cccc(Cl)c1 [Compound 193],64.4,108,
CCCOc1nnc([C@@H](C)NS(=O)(=O)c2ccc(OC)cc2)n1CC [Compound 195],91.2,103,
CCCOc1nnc([C@@H](C)NS(=O)(=O)c2ccc(C)cc2)n1CC [Compound 196],88.5,106,

# Further lines, results first:
inhibition at 10 µM (human Edg-1(S1P1) [1]) [%],inhibition at 10 µM (human Edg-1(S1P1) [2]) [%],Membrane system binding test % inhibition (10 μM) (human Edg-1(S1P1) [1]) [%],Structure (SMILES)
83.1,83.3,,CCn1c(SCC2CCCN(C)C2)nnc1[C@@H](C)NS(=O)(=O)c1ccc(Cl)cc1 (stereo partly shown) [Compound 65]
90.6,84,,CCn1c(SCCCCCCN(C)C)nnc1[C@@H](C)NS(=O)(=O)c1ccc(Cl)cc1 [Compound 66]
42.2,73.8,,CCn1c(SCCCN(C)C)nnc1[C@@H](C)NS(=O)(=O)c1ccc(Cl)cc1 [Compound 67]
92.7,89.5,,CCn1c(SCCc2ccncc2)nnc1[C@@H](C)NS(=O)(=O)c1ccc(Cl)cc1 [Compound 69]
98,88.4,,CCn1c(SC2CCN(C)CC2)nnc1[C@@H](C)NS(=O)(=O)c1ccc(Cl)cc1 [Compound 70]
95.8,89.8,,CCn1c(SCC2CCN(Cc3ccccc3)CC2)nnc1[C@@H](C)NS(=O)(=O)c1ccc(Cl)cc1 [Compound 72]
98.4,93.9,,CCn1c(SCCN2CCNC2=O)nnc1[C@@H](C)NS(=O)(=O)c1ccc(Cl)cc1 [Compound 73]
101,97.3,,CCn1c(SCCC2CCN(C)CC2)nnc1[C@@H](C)NS(=O)(=O)c1ccc(Cl)cc1 [Compound 76]
96.5,83,,CCn1c(SCCN2CCCC2=O)nnc1[C@@H](C)NS(=O)(=O)c1ccc(Cl)cc1 [Compound 78]
94.9,84.7,,CCn1c(SCCCN2CCCC2=O)nnc1[C@@H](C)NS(=O)(=O)c1ccc(Cl)cc1 [Compound 79]
99.5,85.6,,CCn1c(SCC(N)=O)nnc1[C@@H](C)NS(=O)(=O)c1ccc(Cl)cc1 [Compound 83]
100,87.9,,CCn1c(SCCn2ccnc2)nnc1[C@@H](C)NS(=O)(=O)c1ccc(Cl)cc1 [Compound 84]
110,93.4,,CCn1c(SCCC23CC4CC(CC(C4)C2)C3)nnc1[C@@H](C)NS(=O)(=O)c1ccc(Cl)cc1 [Compound 86]
84.7,82.7,,CCn1c(SCCCC(C)=O)nnc1[C@@H](C)NS(=O)(=O)c1ccc(Cl)cc1 [Compound 87]
97.1,87.6,,CCn1c(SCCC(C)(C)C)nnc1[C@@H](C)NS(=O)(=O)c1ccc(Cl)cc1 [Compound 88]
60.2,94,,C=CCSc1nnc([C@@H](C)NS(=O)(=O)c2ccc(Cl)cc2)n1CCC [Compound 95]
86.6,87.4,,CCn1c(OC)nnc1[C@@H](C)NS(=O)(=O)c1ccc(Cl)cc1 [Compound 185]

# Reference: patent publication US8022225B2, “Triazole derivative” (Taisho Pharmaceutical Co., Ltd, priority 2004, dated 2011)
